According to patent EP0437336B1, “Biophosphoryl hydrazines and their use as pesticides” (priority 1990, dated 1991):
In brackets after ≈: the same amount, converted by molar mass. Read-outs that look alike come from different tables or passages of the source.

Experiments:
Two-Spotted Spider Mite = assay: Biological Method D: Foliar Insecticidal Activity Test, mite test; type: in vivo, Tetranychus urticae; parameters: key to LC50 TSM: I = inactive at concentration listed; settings: Method D foliar test, Two-Spotted Spider Mite; for LC50: Tetranychus urticae, read-out: LC50 TSM
Mexican Bean Beetle = assay: Biological Method D: Foliar Insecticidal Activity Test, Mexican Bean Beetle test; type: in vivo, Epilachna varivestis; settings: Epilachna varivestis, Method D foliar test, Mexican Bean Beetle
Boll Weevil [1] = assay: Biological Method D: Foliar Insecticidal Activity Test, boll weevil test; type: in vivo, Anthonomous grandis; settings: Method D foliar test, Boll Weevil
Green Peach Aphid = assay: Biological Method D: Foliar Insecticidal Activity Test, aphid test; type: in vivo, Myzus persicae; parameters: key: I = inactive at concentration listed
Southern Armyworm [2] = assay: Biological Method D: Foliar Insecticidal Activity Test, Southern Armyworm test; type: in vivo, Spodoptera eridania; parameters: key: I = inactive at concentration listed
Boll Weevil [3] = assay: Biological Method D: Foliar Insecticidal Activity Test, boll weevil test; type: in vivo, Anthonomous grandis; parameters: key: I = inactive at concentration listed
[4] = test system: southern corn rootworm, Diabrotica undecimpunctata howardi; settings: for foliar systemic nonagressive Method B crw % control at 0.56 kg/ha (0.5 lb/acre): percent control relative to infested check, from root damage ratings, 14 days post-spraying; for pest or weed control at 560 g/ha: Diabrotica undecimpunctata, in Zea mays, foliar, 336 h, read-out: foliar systemic nonagressive Method B crw % control at 0.56 kg/ha (0.5 lb/acre)
[5] = test system: southern corn rootworm, Diabrotica undecimpunctata howardi; assay: Biological Method A: Corn Rootworm Screening Test (treated non-aggressive soil); settings: soil concentration giving 90% mortality, 10 days at 27°C
[6] = test system: southern corn rootworm, Diabrotica undecimpunctata howardi; settings: at-planting soil application
Southern Armyworm [7] = assay: Biological Method D: Foliar Insecticidal Activity Test, Southern Armyworm test; type: in vivo, Spodoptera eridania; settings: Spodoptera eridania, Method D foliar test, Southern Armyworm
Method: Biological Method D: Foliar Insecticidal Activity Test
In evaluating the foliar insecticidal activity of the compounds of this invention against insects and mites, the following test procedures were employed.
Not all compounds were tested at each of the several concentrations stated above. Test concentrations of a compound were selected as those most likely to differentiate dose response of a particular compound toward a particular test insect.
Initial evaluations were made on one or more of the following pests:
For the Mexican Bean Beetle and Southern armyworm tests, individual lima bean (Phaseolus limeniss var. Woods' Prolific) leaves were placed on moistened pieces of filter paper in Petri dishes. The leaves were then sprayed with the test solution using a rotating turntable and allowed to dry. The dishes were then infested with 10 third instar larvae of either the Mexican Been Beetle or the Southern Armyworm. The dishes were then covered. Percent mortality was determined for each species and spray concentration at 48 and 96 hours after treatment.
The mortalities obtained in this manner were plotted on logarithmic probability paper.
The rotating turntable consists of a fixed, continuously operating spray nozzle under which targets are rotated at a fixed speed and distance. If the target is a Petri dish (such as for the bean beetle, armyworm, mite, or aphid tests), the distance from the nozzle is 38.1 cm (15 inches). If the target is a Mason jar (such as for the boll weevil test), the distance from the nozzle is 17.8 cm (7 inches). The nozzle is located 8 inches from the rotating shaft. The targets on individual platforms revolve around the shaft at 1 revolution per 20 seconds but only a brief portion of this time occurs in the spray path. Targets pass only once under the nozzle and then are removed to drying hoods.
The nozzle used is a 1/4 JCO Spraying Systems (Wheaton, Illinois) air atomizing nozzle equipped with a No. 2850 fluid cap and a No. 70 air cap. At the 68.95 x 10³ Pa gauge (10 psig) air pressure used and with liquid siphon feed, 1.89 ℓ/hr [0.5 GPH (gallons per hour)] are delivered in a round spray pattern with a 21 degree spray angle. Targets are misted with spray droplets to the point that the droplets coalesce to form a uniform thin film insufficient to drown test organisms.

[8] = 48 hrs, read-out: LC50 BB 48 hrs.
[9] = 96 hrs, read-out: LC50 BB 96 hrs

Row | SMILES | LC50 (Two-Spotted Spider Mite) | LC50 (Mexican Bean Beetle; [8]) | LC50 (Mexican Bean Beetle; [9]) | LC50 BW 96 hrs (Boll Weevil [1]) | LC50 GPA (Green Peach Aphid) | LC50 AW 48 hrs (Southern Armyworm [2]) | LC50 AW 96 hrs (Southern Armyworm [2]) | LC50 BW 48 hrs (Boll Weevil [3]) | foliar systemic nonagressive Method B crw % control at 0.56 kg/ha (0.5 lb/acre) [4] | primary nonagressive Method A crw LC90 [5] | secondary aggressive Method C crw LC50 ([6]; rated 17 days post-infestation) | secondary aggressive Method C crw LC50 ([6]; value in brackets) | LC50 TSM (Two-Spotted Spider Mite) | LC50 BW 96 hrs (Boll Weevil [3]) | pest or weed control at 560 g/ha [4] | LC50 (Southern Armyworm [7]; 48 hrs, read-out: LC50 AW 48 hrs) | LC50 (Southern Armyworm [7]; 96 hrs, read-out: LC50 AW 96 hrs) | LC50 BW 48 hrs (Boll Weevil [1]; 48 hrs)
1 | CCOP(=S)(NNP(=S)(OCC)OC(C)CC)OCC (centres unmarked) [Compound 8] | 335 µg/mL (≈ 919 µM) | 500 µg/mL (≈ 1370 µM) | 84 µg/mL (≈ 231 µM) | 740 ppm | I | I | I | I | 53% | <0.1 ppm | 0.81 kg/ha | 0.72 lb/acre |  |  |  |  |  | 
2 | CCOP(=S)(NNP(=S)(OCC)OCC(C)C)OCC (centres unmarked) [Compound 11, N-(O,O-diethylthiophosphoryl) N′-(O-ethyl O-isobutylthiophosphoryl) hydrazine] |  | 150 µg/mL (≈ 412 µM) | 60 µg/mL (≈ 165 µM) | 740 ppm | I | I | I | I | 53% | <0.1 ppm | 0.36 kg/ha | 0.32 lb/acre | I |  |  |  |  | 
3 | CCCOP(=S)(NNP(=S)(OCCC)OCCC)OCCC [Compound 14, reference compound] |  | 500 µg/mL (≈ 1270 µM) | 52 µg/mL (≈ 132 µM) |  | I | I | I | I |  | 0.39 ppm | 1.12 kg/ha | 1.0 lb/acre | I | I | 46% |  |  | 
4 | CCCOP(=S)(NNP(=S)(OC(C)C)OC(C)C)OCCC [Compound 16, reference compound] |  | 150 µg/mL (≈ 382 µM) | 62 µg/mL (≈ 158 µM) |  | I | I | I | I |  | 0.95 ppm | 1.03 kg/ha | 0.92 lb/acre | I | I | 46% |  |  | 
5 | CCOP(=S)(NNP(=S)(OC(C)C)OC(C)C)OCC [Compound 9, reference compound] | 76 µg/mL (≈ 209 µM) | 300 µg/mL (≈ 823 µM) | 150 µg/mL (≈ 412 µM) |  | I | I | I | I | 64% | 0.41 ppm | 1.1 kg/ha | 0.98 lb/acre |  | I |  |  |  | 
6 | CCCOP(=S)(NNP(=S)(OCC)OCCC)OCC (centres unmarked) [Compound 29, reference compound] | 150 µg/mL (≈ 412 µM) | 150 µg/mL (≈ 412 µM) | 150 µg/mL (≈ 412 µM) |  | I |  |  | I | 38% | 0.09 ppm | ~3.03 kg/ha | ~2.7 lb/acre |  | I |  | 420 µg/mL (≈ 1150 µM) | 180 µg/mL (≈ 494 µM) | 
7 | CCOP(=S)(NNP(=S)(OCC)SC(C)C)OCC (centres unmarked) [Compound 20] |  | 110 µg/mL (≈ 300 µM) | 52 µg/mL (≈ 142 µM) |  | I | I | I | I | 50% | 0.40 ppm | 1.01 kg/ha | 0.90 lb/acre | I | I |  |  |  | 
8 | CCOP(=S)(NNP(=S)(OCC)OCC(C)(C)C)OCC (centres unmarked) [Compound 38, N-(O,O-diethylthiophosphoryl) N′-(O-ethyl O-neopentylthiophosphoryl) hydrazine] | 150 µg/mL (≈ 396 µM) | 60 µg/mL (≈ 159 µM) | 60 µg/mL (≈ 159 µM) | 740 ppm | I | I | I |  |  | 0.07 ppm | 0.5 kg/ha | 0.45 lb/acre |  |  | 46% |  |  | 740 ppm
9 | CCCNP(=S)(NNP(=S)(OCC)OCC)OCC (centres unmarked) [Compound 24] |  | 27 µg/mL (≈ 77.3 µM) | 31 µg/mL (≈ 88.7 µM) | 380 ppm | I | I | I | I | 38% | 1.1 ppm |  |  | I |  |  |  |  | 
10 | CCCOP(=S)(NNP(=S)(OCC)OC(C)CC)OCCC (centres unmarked) [Compound 19, N-(O,O-dipropylthiophosphoryl) N′-(O-ethyl O-secbutylthiophosphoryl) hydrazine] |  | 78 µg/mL (≈ 199 µM) | 62 µg/mL (≈ 158 µM) |  | I | I | I | I |  | <0.1 ppm | 0.28 kg/ha | 0.25 lb/acre | I | I | 54% |  |  | 
11 | CCCOP(=S)(NNP(=S)(OCC)OCC(C)C)OCCC (centres unmarked) [Compound 18, N-(O,O-dipropylthiophosphoryl) N′-(O-ethyl O-isobutylthiophosphoryl) hydrazine] |  | 150 µg/mL (≈ 382 µM) | 78 µg/mL (≈ 199 µM) |  | I | I | I | I |  | <0.1 ppm | 0.36 kg/ha | 0.32 lb/acre | I | I | 61% |  |  | 
12 | CCCOP(=S)(NNP(=S)(OCC)OCC)OCC (centres unmarked) [Compound 6] | 150 µg/mL (≈ 428 µM) | 420 µg/mL (≈ 1200 µM) |  |  | I | I | I | I | 3% | <0.1 ppm |  |  |  | I |  |  |  | 
13 | CCCCOP(=S)(NNP(=S)(OCCC)OCCC)OCC (centres unmarked) [Compound 17] |  | 150 µg/mL (≈ 382 µM) | 62 µg/mL (≈ 158 µM) |  | I | I | I | I |  | 1.1 ppm | 1.02 kg/ha | 0.91 lb/acre | I | I | 38% |  |  | 
14 | C#CCOP(=S)(NNP(=S)(OCC)OCC)OCC (centres unmarked) [Compound 12] |  | 150 µg/mL (≈ 433 µM) | 62 µg/mL (≈ 179 µM) |  | I | I | I | I | 30% | 0.56 ppm |  |  | I | I |  |  |  | 
